Data on 23 molecules can be found in ChEMBL document CHEMBL1201862, “PubChem BioAssay data set” (2004).

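These data come from cells grown in 96-well plates and exposed to compound for 48 hours at five concentrations. Abbreviation: GI50, concentration required for 50% inhibition of growth.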 The source made the active and inactive calls. Cut-off read from the data, not from the text of the source: active = GI50 up to about 1.1 µM and inactive = higher.

Assay in all cases: inhibition of tumour cell growth, NCI panel, 48 h
Assay [1] deals with M19-MEL.
Assay [2] concerns HOP-18.
The test system of assay [3] is DLD-1.
Assay [4] deals with DMS-114.
In assay [5] the test system is XF498.
In assay [6] the test system is DMS-273.
Assay [7] has as its system LXFL 529.
Assay [8] has as its system KM-20L2.
Assay [9] has as its system SNB-78.

Consider `O=C(c1ccccc1)c1nc2ccc(Cl)cc2c2c1Cc1ccccc1-2`, for which the GI50 in [1], in assay [2], in assay [3], in assay [4], in assay [5] and in assay [6] was > 100 µM (inactive) each time. Further, the GI50 in assay [7] and in assay [8] was > 100 µM (inactive) in each case.
With `C#CC(C)(C)Oc1cc(O)c2c(=O)c3ccccc3n(C)c2c1`, the GI50 is > 100 µM (inactive) in [2]; > 100 µM (inactive) in assay [4]; > 100 µM (inactive) in assay [5]; 23.1 µM (inactive) in assay [6]; > 100 µM (inactive) in assay [9]; > 100 µM (inactive) in assay [7]. For the same molecule, in assay [8], the GI50 was > 100 µM (inactive).
For the molecule `Cc1cccc(C)c1NC(=O)C(=O)Nn1c(NN)nc2ccccc2c1=O`, the GI50 in assay [1], in [2], in assay [4], in assay [6], in [9] and in assay [7] was > 100 µM (inactive) throughout. Moreover, the GI50 in [8] was > 100 µM (inactive).
As to `CC1=C(C(=O)NCc2ccccc2)C(/C=C/c2ccccc2)C(C(=O)NCc2ccccc2)=C(C)N1`, the GI50 in [1], in [2], in assay [3], in assay [4], in assay [5] and in assay [6] was > 100 µM (inactive) each time. Further, the GI50 in assay [9], in assay [7] and in assay [8] was > 100 µM (inactive) throughout.
Turning to `C=C1C(=O)OC2C/C(C)=C/CC/C(C)=C/CCC3(COC(C)=O)OC3CC12` (configuration not stated), the GI50 in assay [1] is 13.1 µM (inactive); in [2] it was 11.2 µM (inactive); in [3], 3.81 µM (inactive); in assay [4] it was 4.09 µM (inactive); in assay [5], 7.11 µM (inactive); in assay [6], 3.87 µM (inactive). For the same molecule, the GI50 in [9] is 7.71 µM (inactive); in [7], 2.77 µM (inactive); in [8] it was 6.93 µM (inactive).
In the case of `CCOC(=O)C1C(c2ccc(Cl)cc2Cl)NC(c2ccc(C)cc2)C(C(=O)OC)S1(=O)=O` (configuration not stated), the GI50 was 53.1 µM (inactive) in assay [1]; > 100 µM (inactive) in assay [3]; 3.33 µM (inactive) in assay [5]; 85.5 µM (inactive) in [6]; > 100 µM (inactive) in assay [9]; 54.6 µM (inactive) in assay [7].
In the case of `COc1cccc2c1C(=O)c1c(O)c3c(c(O)c1C2=O)C[C@@](O)(/C(C)=N\O)C[C@@H]3OC1CC(N)C(O)C(C)O1` (some centres not stated), the GI50 is 0.743 µM (active) in assay [1]; 2.18 µM (inactive) in assay [2]; 1.95 µM (inactive) in assay [3]; 0.371 µM (active) in [4]; 0.21 µM (active) in [5]; 0.454 µM (active) in [6]. The GI50 in [9] is 1.28 µM (inactive); in assay [7], 0.508 µM (active); in assay [8], 3 µM (inactive).
Regarding `CCCCOC(=O)NC(=O)c1cn(CCCOC(=O)CCCCCCCCC(=O)OCCCn2cc(C(=O)NC(=O)OCCCC)c(=O)[nH]c2=O)c(=O)[nH]c1=O`, the GI50 was > 100 µM (inactive) in assay [1]; 24.9 µM (inactive) in assay [2]; > 100 µM (inactive) in assay [3]; > 100 µM (inactive) in [4]; > 100 µM (inactive) in [5]; > 100 µM (inactive) in [7]. Further, the GI50 in assay [8] is > 100 µM (inactive).
As to `N#Cc1cccc2c1Nc1ccccc1S2`, the GI50 in [1] was > 100 µM (inactive); in assay [2], 37.3 µM (inactive); in [3], > 100 µM (inactive); in assay [4] it was 81.1 µM (inactive); in assay [5], 41.8 µM (inactive); in assay [6], > 100 µM (inactive). Besides, the GI50 was 67.9 µM (inactive) in [9] and > 100 µM (inactive) in assay [8].
Regarding `CC(C)N(C(=O)C12C3C4C1C1C2C3C41C(=O)C(C)(C)C)C(C)C` (configuration not stated), the GI50 was > 100 µM (inactive) in assay [1]; > 100 µM (inactive) in [3]; 52.5 µM (inactive) in assay [4]; > 100 µM (inactive) in [5]; > 100 µM (inactive) in [6]; > 100 µM (inactive) in [9]. The GI50 in [7] and in [8] was > 100 µM (inactive) in each case.
As to `Cc1ccccc1-n1c(CCl)nc2ccc(Br)cc2c1=O`, the GI50 was 6.15 µM (inactive) in assay [1]; 22.9 µM (inactive) in assay [2]; 3.82 µM (inactive) in assay [3]; 7.46 µM (inactive) in assay [4]; 26 µM (inactive) in [6]; 18.2 µM (inactive) in [9]. Besides, the GI50 in [7] was 0.887 µM (active); in assay [8], 17.8 µM (inactive).
With `O=[N+]([O-])c1ccc(N=P(c2ccccc2)(c2ccccc2)c2ccccc2)n2nnnc12`, the GI50 in assay [1] was 82 µM (inactive); in [2], > 100 µM (inactive); in assay [4], 72.3 µM (inactive); in [5], 32.7 µM (inactive); in assay [6] it was > 100 µM (inactive); in assay [7], 48.3 µM (inactive). In assay [8], the GI50 was > 100 µM (inactive).
Regarding `COc1c(I)c(OC)c2c(c1I)O[C@@H]1OCC[C@H]21`, the GI50 in [1] is 23.8 µM (inactive); in assay [2], 24.3 µM (inactive); in [3], > 100 µM (inactive); in [4] it was 26.5 µM (inactive); in [5] it was 30.3 µM (inactive); in assay [6], 23.1 µM (inactive). The GI50 is 57.9 µM (inactive) in assay [9], 26.9 µM (inactive) in [7] and 65.3 µM (inactive) in assay [8].
As for `O=C(NCCCCCCCCCCCCNC(=O)c1cccc2ccccc12)c1cccc2ccccc12`, the GI50 in [1] is > 100 µM (inactive); in assay [2] it was > 61.1 µM (inactive); in [3], 51.4 µM (inactive); in assay [4], > 100 µM (inactive); in [5], > 47.8 µM (inactive); in [6] it was > 100 µM (inactive). Also, the GI50 in assay [9] is > 47 µM (inactive); in [7], > 91.4 µM (inactive); in assay [8], > 100 µM (inactive).
Regarding `Cc1ccc(S(=O)(=O)NC(=O)C#CCOC2CCCCO2)cc1` (configuration not stated), the GI50 in [1], in [2], in assay [3], in assay [4], in assay [5] and in assay [6] was > 100 µM (inactive) in each case. The GI50 in [7] and in assay [8] was > 100 µM (inactive) in each case.
As for `C=C1CC2OC(=O)C(=C)C2C(O)C2C(=C)CCC12` (configuration not stated), the GI50 in assay [1] was 5.19 µM (inactive); in assay [2] it was 15.9 µM (inactive); in assay [3] it was 10.1 µM (inactive); in [4] it was 4.55 µM (inactive); in [6], 8.2 µM (inactive); in [9], 6.56 µM (inactive). For the same molecule, the GI50 in assay [7] was 4.33 µM (inactive).
On to `Cc1cc(Cl)ccc1NC(=O)CCCC(=O)C1C/C(=N/O)CC/C1=N\O` (configuration not stated), for which the GI50 in assay [1], in [2], in [3], in assay [4], in assay [5] and in [6] was > 100 µM (inactive) throughout. Besides, the GI50 in [9], in assay [7] and in assay [8] was > 100 µM (inactive) in each case.
As to `O=C(Nc1ccccc1C(=O)NC(=O)c1ccccc1NC(=O)c1ccccc1)c1ccccc1`, the GI50 in [2] is 4.49 µM (inactive); in assay [3], 12.5 µM (inactive); in assay [4], 2.17 µM (inactive); in [5], 1.69 µM (inactive); in assay [6], 2.29 µM (inactive); in assay [8], 3.15 µM (inactive).
On to `COc1cccc2c1C(=O)c1c(O)c3c(c(O)c1C2=O)C[C@@](O)(C(=O)CO)CC3OC1CC(O)C(O)C(C)O1` (some centres not stated), for which the GI50 in assay [1] was 0.218 µM (active); in [2], 0.277 µM (active); in assay [3], 0.385 µM (active); in assay [4] it was 0.188 µM (active); in [5], 0.102 µM (active); in assay [6] it was 0.033 µM (active). In addition, the GI50 in assay [9] is 1.28 µM (inactive); in assay [7], 0.461 µM (active); in assay [8] it was 0.592 µM (active).
Consider `COc1ccccc1NC(=O)NS(=O)(=O)c1ccccc1`, for which the GI50 in assay [1] was > 100 µM (inactive); in [2], 48.2 µM (inactive); in [3] it was > 100 µM (inactive); in assay [4], > 100 µM (inactive); in [6] it was > 100 µM (inactive); in [9], > 100 µM (inactive). The GI50 in assay [7] and in [8] was > 100 µM (inactive) throughout.
Regarding `COC(=O)C(=C/c1ccc(OC)cc1)/C(C(=O)O)=C(/C)c1ccccc1`, the GI50 in [1], in assay [2], in assay [3], in assay [5], in assay [6] and in assay [9] was > 100 µM (inactive) throughout. Also, the GI50 in assay [7] and in assay [8] was > 100 µM (inactive) each time.
Turning to `COc1ccc2c(c1)[n+]([O-])c(/C(C)=N/NC(=O)c1ccccc1O)c(C)[n+]2[O-]`, the GI50 in assay [1] is > 100 µM (inactive); in assay [2], > 100 µM (inactive); in [3] it was > 100 µM (inactive); in [4] it was > 100 µM (inactive); in [5], 81.5 µM (inactive); in [9] it was > 100 µM (inactive). The GI50 in assay [7] and in [8] was > 100 µM (inactive) throughout.
For `COc1cc(Nc2cnc3cc(C(F)(F)F)ccc3n2)cc(OC)c1OC`, the GI50 in assay [1], in [2], in [3], in assay [5], in assay [6] and in assay [9] was > 100 µM (inactive) each time. For the same molecule, the GI50 in assay [7] and in assay [8] was > 100 µM (inactive) in each case.
